PMC7377239, “Cardiovascular Effects of Polychlorinated Biphenyls and Their Major Metabolites” (Environmental Health Perspectives, 2020)
Read-outs that look alike come from different tables or passages of the source.

Legend:
[1] = system: iCell endothelial cells (human iPSC-derived ECs); assay: Tube formation (tubulogenesis) assay in iCell endothelial cells, 18 h; type: cell-based; conditions: Homo sapiens, Endothelial cell; for activity at 0.1 µM: 0.10 µM
In short: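 Tube formation was measured by calcein AM imaging after overnight compound exposure (37°C, 0.5% DMSO vehicle) of human iPSC-derived ECs, 7,500/well, on reduced-growth-factor Geltrex in starvation medium. Vehicle-normalized data fitted to four-parameter logistic; POD set at one vehicle SD; without response, 100 μM taken as NOAEL.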

HUVECs = assay: High-content imaging cytotoxicity in HUVECs, 24 h; type: cell-based, human; conditions: Homo sapiens, HUVEC, 24 h; for viability at 0.01 µM / activity at 0.01 µM: concentration 0.01 µM; for viability at 0.01 µM / activity at 0.01 µM / viability at 0.1 µM / activity at 0.1 µM / viability at 1 µM / activity at 1 µM / viability at 10 µM / activity at 10 µM / viability at 100 µM / activity at 100 µM: 0.00 µM = 100.00; for viability at 0.1 µM / activity at 0.1 µM: concentration 0.10 µM; for viability at 1 µM / activity at 1 µM: concentration 1.00 µM; for viability at 10 µM / activity at 10 µM: concentration 10.00 µM; for viability at 100 µM / activity at 100 µM: concentration 100.00 µM
In short: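 Point-of-departure values come from four-parameter logistic fits of vehicle-normalized (0.5% DMSO) imaging readouts, cutoff one SD of vehicle means, 100μM where no concentration–response. Cells: HUVEC monolayers, passages 1–5, treated 24 h at 37°C, 5% CO2, then Hoechst 33342/MitoTracker Orange/calcein AM stained, imaged at 10×.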

[2] = iPSC-EC, 0.00 µM = 100.00, read-out: endo.mtl.18hr
[3] = iPSC-EC, 0.00 µM = 100.00, read-out: endo.tlps.18hr
[4] = iPSC-EC, 0.00 µM = 100.00, read-out: endo.tta.18hr
[5] = iPSC-EC, 0.00 µM = 100.00, read-out: endo.ttl.18hr
[6] = HUVECs, 24 hr, read-out: huvec.cyto.24hr
[7] = HUVECs, 24 hr, read-out: huvec.mito.24hr
[8] = HUVECs, 24 hr, read-out: huvec.mitoint.24hr
[9] = HUVECs, 24 hr, read-out: huvec.nma.24hr
[10] = HUVECs, 24 hrs, read-out: huvec.tc.24hrs

Clc1ccc(-c2cc(Cl)c(Cl)c(Cl)c2)cc1Cl [PCB126]
activity at 0.01 µM [1, 2]: 99.5%
activity at 0.01 µM [1, 3]: 175%
activity at 0.01 µM [1, 4]: 91%
activity at 0.01 µM [1, 5]: 90.1%
activity at 0.1 µM [1, 2]: 125%
activity at 0.1 µM [1, 3]: 110%
activity at 0.1 µM [1, 4]: 130%
activity at 0.1 µM [1, 5]: 136%
activity at 1 µM [1, 2]: 104%
activity at 1 µM [1, 3]: 99.1%
activity at 1 µM [1, 4]: 126%
activity at 1 µM [1, 5]: 125%
activity at 10 µM [1, 2]: 93.8%
activity at 10 µM [1, 3]: 52.4%
activity at 10 µM [1, 4]: 91.2%
activity at 10 µM [1, 5]: 100%
activity at 100 µM [1, 2]: 74.1%
activity at 100 µM [1, 3]: 40.1%
activity at 100 µM [1, 4]: 41.4%
activity at 100 µM [1, 5]: 39.6%
minimal effective concentration ([1]; iPSC-EC, 100.00 = highest concentration tested, read-out: endo.mtl.18hr POD): 28.1 µM
minimal effective concentration ([1]; iPSC-EC, 100.00 = highest concentration tested, read-out: endo.tlps.18hr POD): 4.68 µM
minimal effective concentration ([1]; iPSC-EC, 100.00 = highest concentration tested, read-out: endo.tta.18hr POD): 25.7 µM
minimal effective concentration ([1]; iPSC-EC, 100.00 = highest concentration tested, read-out: endo.ttl.18hr POD): 38.9 µM
viability at 0.01 µM (HUVECs; [6]): 86.8%
activity at 0.01 µM (HUVECs; [7]): 85.6%
activity at 0.01 µM (HUVECs; [8]): 89%
activity at 0.01 µM (HUVECs; [9]): 94.2%
viability at 0.1 µM (HUVECs; [6]): 93.4%
activity at 0.1 µM (HUVECs; [7]): 92%
activity at 0.1 µM (HUVECs; [8]): 79.3%
activity at 0.1 µM (HUVECs; [9]): 93.5%
viability at 1 µM (HUVECs; [6]): 93.8%
activity at 1 µM (HUVECs; [7]): 92.5%
activity at 1 µM (HUVECs; [8]): 83.6%
activity at 1 µM (HUVECs; [9]): 95.2%
viability at 10 µM (HUVECs; [6]): 91.2%
activity at 10 µM (HUVECs; [7]): 89.7%
activity at 10 µM (HUVECs; [8]): 74.2%
activity at 10 µM (HUVECs; [9]): 93%
viability at 100 µM (HUVECs; [6]): 57.1%
activity at 100 µM (HUVECs; [7]): 55%
activity at 100 µM (HUVECs; [8]): 96.7%
activity at 100 µM (HUVECs; [9]): 84.5%
minimal effective concentration (HUVECs; HUVECs, 24 hr, MAX 100.00, read-out: huvec.cyto.24hr POD): 5.33 µM
minimal effective concentration (HUVECs; HUVECs, 24 hr, MAX 100.00, read-out: huvec.mito.24hr POD): 100 µM
minimal effective concentration (HUVECs; HUVECs, 24 hr, MAX 100.00, read-out: huvec.mitoint.24hr POD): 100 µM
minimal effective concentration (HUVECs; HUVECs, 24 hr, MAX 100.00, read-out: huvec.nma.24hr POD): 100 µM
viability at 0.01 µM (HUVECs; [10]): 86.9%
viability at 0.1 µM (HUVECs; [10]): 93.4%
viability at 1 µM (HUVECs; [10]): 93.8%
viability at 10 µM (HUVECs; [10]): 91.4%
viability at 100 µM (HUVECs; [10]): 57.3%
minimal effective concentration (HUVECs; HUVECs, 24 hrs, MAX 100.00, read-out: huvec.tc.24hrs POD): 5.33 µM

Clc1cccc(-c2cccc(Cl)c2)c1 [PCB 11, 3,3′-Dichlorobiphenyl]
minimal effective concentration ([1]; endothelial cells (endo), tube formation mtl, 18 hr, read-out: POD endo.mtl.18hr): 100 µM
minimal effective concentration ([1]; endothelial cells (endo), tube formation tlps, 18 hr, read-out: POD endo.tlps.18hr): 100 µM
minimal effective concentration ([1]; endothelial cells (endo), tube formation tta, 18 hr, read-out: POD endo.tta.18hr): 100 µM
minimal effective concentration ([1]; endothelial cells (endo), tube formation ttl, 18 hr, read-out: POD endo.ttl.18hr): 100 µM
minimal effective concentration (HUVECs; cyto, 24 hr, read-out: POD huvec.cyto.24hr): 11.2 µM
minimal effective concentration (HUVECs; mito, 24 hr, read-out: POD huvec.mito.24hr): 9.68 µM
minimal effective concentration (HUVECs; mitoint, 24 hr, read-out: POD huvec.mitoint.24hr): 7.62 µM
minimal effective concentration (HUVECs; nma, 24 hr, read-out: POD huvec.nma.24hr): 9.3 µM
minimal effective concentration (HUVECs; tc, 24 hr, read-out: POD huvec.tc.24hr): 11.2 µM
